The values below come from patent US20180305332A1, “Bispiperidinyl Derivatives as Liver X Receptor Beta Agonists, Compositions, and Their Use” (Merck Sharp & Dohme Corp., priority 2015, published 2018).

For experiment [1], the target named is T1, GST tagged LXRalpha LBD (ligand binding domain) (Homo sapiens, UniProt Q13133).
T1 construct: purchased Invitrogen pv4655
T1 sequence (Q13133 209-447 limits assumed): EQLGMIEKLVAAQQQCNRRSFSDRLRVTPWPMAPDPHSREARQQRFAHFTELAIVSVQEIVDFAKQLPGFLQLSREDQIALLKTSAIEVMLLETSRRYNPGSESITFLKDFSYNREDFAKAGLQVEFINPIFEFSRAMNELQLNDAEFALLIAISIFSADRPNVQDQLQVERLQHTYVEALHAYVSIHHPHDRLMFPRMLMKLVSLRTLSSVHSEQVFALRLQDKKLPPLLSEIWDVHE
Nature of the experiment: LanthaScreen TR-FRET Liver X Receptor Coactivator Assay, LXR alpha-LBD. Format: biochemical. The note with it: relative to reference T0901317; for EC50: read-out: LXR alpha IP; for Emax: activity at max dose (efficacy), read-out: LXR alpha act @ max dose (%). The procedure, abridged:
(§1)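 Coactivator-recruitment TR-FRET format: GST-LBD, fluorescein-labelled coactivator peptide, Tb-conjugated anti-GST antibody, incubated at RT. Potency and efficacy scaled to T0901317.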

In experiment [2] the target is T2, GST tagged LXRbeta LBD (ligand binding domain) (Homo sapiens, UniProt P55055).
T2 construct: purchased Invitrogen pv4658.pps
T2 sequence (P55055 222-460 limits assumed): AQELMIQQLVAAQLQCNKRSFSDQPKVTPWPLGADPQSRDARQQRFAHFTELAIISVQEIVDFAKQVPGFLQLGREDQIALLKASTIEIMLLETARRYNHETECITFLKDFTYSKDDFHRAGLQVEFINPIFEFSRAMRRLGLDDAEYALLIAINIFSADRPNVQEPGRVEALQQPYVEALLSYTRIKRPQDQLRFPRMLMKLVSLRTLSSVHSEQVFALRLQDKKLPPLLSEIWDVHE
In words: LanthaScreen TR-FRET Liver X Receptor Coactivator Assay, LXR beta-LBD. Conditions: relative to reference T0901317; for EC50: Inflection Point (potency), co-activator recruitment, read-out: LXR beta IP; for Emax: activity at max dose (efficacy), read-out: LXR beta act @ max dose (%). Format: biochemical. In a few lines: as §1

Where [3] appears, read: Inflection Point (potency), co-activator recruitment.

As for `O=C(NC1CN(C(=O)c2ccc(N3CCC(C4CCN(C(=O)[C@](O)(c5ccccc5)C(F)(F)F)CC4)CC3)cc2Cl)C1)c1ccccc1` [Example E-41, N-{1-[(2-chloro-4-{1′-[(2R)-3,3,3-trifluoro-2-hydroxy-2-phenylpropanoyl]-4,4′-bipiperidin-1-yl}phenyl)carbonyl]azetidin-3-yl}benzamide], the EC50 in experiment [1] (setting [3]) was determined as 1680 nM; in experiment [2], 118 nM. Further, the Emax in experiment [1] amounted to 54%; in experiment [2] it was 74%.
As to `O=C(c1ccc(N2CCC(C3CCN(C(=O)[C@](O)(c4ccccc4)C(F)(F)F)CC3)CC2)cc1Cl)N1CC(N2CCCC2)C1` [Example E-42, (2R)-3-(1′-{3-chloro-4-[(3-pyrrolidin-1-ylazetidin-1-yl)carbonyl]phenyl}-4,4′-bipiperidin-1-yl)-1,1,1-trifluoro-3-oxo-2-phenylpropan-2-ol], the EC50 worked out at 1460 nM in experiment [1] (setting [3]) and 98 nM in experiment [2]. Also, the Emax in experiment [1] worked out at 25%; in experiment [2], 39%.
The like results for `O=C(c1ccc(N2CCC(C3CCN(C(=O)[C@](O)(c4ccccc4)C(F)(F)F)CC3)CC2)cc1Cl)N1CC(c2cccnc2)C1` [Example E-43, (2R)-3-(1′-{3-chloro-4-[(3-pyridin-3-ylazetidin-1-yl)carbonyl]phenyl}-4,4′-bipiperidin-1-yl)-1,1,1-trifluoro-3-oxo-2-phenylpropan-2-ol] were, in that order, 3010 nM, 355 nM, 24% and 50%.
With `O=C(c1ccc(N2CCC(C3CCN(C(=O)[C@](O)(c4ccccc4)C(F)(F)F)CC3)CC2)cc1Cl)N1CC(N2CCCCC2)C1` [Example E-44, (2R)-3-(1′-{3-chloro-4-[(3-piperidin-1-ylazetidin-1-yl)carbonyl]phenyl}-4,4′-bipiperidin-1-yl)-1,1,1-trifluoro-3-oxo-2-phenylpropan-2-ol], the EC50 in experiment [1] (setting [3]) turned out to be 1690 nM; in experiment [2] it was 90 nM. For the same compound, the figures for the Emax in experiment [1] and in experiment [2] were 31% and 67%, respectively.
For `O=C(c1ccc(N2CCC(C3CCN(C(=O)[C@](O)(c4ccccc4)C(F)(F)F)CC3)CC2)cc1Cl)N1CC(F)C1` [Example E-45, (2R)-3-(1′-{3-chloro-4-[(3-fluoroazetidin-1-yl)carbonyl]phenyl}-4,4′-bipiperidin-1-yl)-1,1,1-trifluoro-3-oxo-2-phenylpropan-2-ol], in that order: 1020 nM, 414 nM, 12% and 68%.
Regarding `O=C(c1ccc(N2CCC(C3CCN(C(=O)[C@](O)(c4ccccc4)C(F)(F)F)CC3)CC2)cc1Cl)N1CCC1CO` (stereo partly drawn) [Example E-46, (2R)-3-[1′-(3-chloro-4-{[2-(hydroxymethyl)azetidin-1-yl]carbonyl}phenyl)-4,4′-bipiperidin-1-yl]-1,1,1-trifluoro-3-oxo-2-phenylpropan-2-ol], the results for the EC50 in experiment [1] (setting [3]) and in experiment [2] were 2250 nM and 395 nM, respectively. Also, the Emax in experiment [1] is 27%; in experiment [2], 55%.
On to `Cc1nnc(CN(C)C(=O)c2ccc(N3CCC(C4CCN(C(=O)[C@](O)(c5ccccc5)C(F)(F)F)CC4)CC3)cc2Cl)o1` [Example E-47, 2-chloro-N-methyl-N-[(5-methyl-1,3,4-oxadiazol-2-yl)methyl]-4-{1′-[(2R)-3,3,3-trifluoro-2-hydroxy-2-phenylpropanoyl]-4,4′-bipiperidin-1-yl}benzamide], for which the “LXR alpha IP (nM)” value in experiment [1] (setting [3]) was “NO IP”. In addition, in experiment [1], the Emax is 10%. In experiment [2], the EC50 stood at 334 nM and the Emax was found to be 71%.
As for `COCCCN(C)C(=O)c1ccc(N2CCC(C3CCN(C(=O)[C@](O)(c4ccccc4)C(F)(F)F)CC3)CC2)cc1Cl` [Example E-48, 2-chloro-N-(3-methoxyproply)-N-methyl-4-{1′-[(2R)-3,3,3-trifluoro-2-hydroxy-2-phenylpropanoyl]-4,4′-bipiperidin-1-yl}benzamide], the EC50 in experiment [1] (setting [3]) turned out to be 1720 nM; in experiment [2] it was 175 nM. For the same compound, the Emax was 26% in experiment [1] and 106% in experiment [2].
Regarding `CN(Cc1nccs1)C(=O)c1ccc(N2CCC(C3CCN(C(=O)[C@](O)(c4ccccc4)C(F)(F)F)CC3)CC2)cc1Cl` [Example E-49, 2-chloro-N-methyl-N-(1,3-thiazol-2-ylmethyl)-4-{1′-[(2R)-3,3,3-trifluoro-2-hydroxy-2-phenylpropanoyl]-4,4′-bipiperidin-1-yl}benzamide], the values for the EC50 in experiment [1] (setting [3]) and in experiment [2] were 1380 nM and 184 nM, respectively. Moreover, the figures for the Emax in experiment [1] and in experiment [2] were 30% and 77%, respectively.
Take `CN(Cc1ccno1)C(=O)c1ccc(N2CCC(C3CCN(C(=O)[C@](O)(c4ccccc4)C(F)(F)F)CC3)CC2)cc1Cl` [Example E-50, 2-chloro-N-(isoxazol-5-ylmethyl)-N-methyl-4-{1′-[(2R)-3,3,3-trifluoro-2-hydroxy-2-phenylpropanoyl]-4,4′-bipiperidin-1-yl}benzamide]: the figures for the EC50 in experiment [1] (setting [3]) and in experiment [2] were 1400 nM and 349 nM, respectively. The Emax is 31% in experiment [1] and 74% in experiment [2].
Consider `CC(c1ccon1)N(C)C(=O)c1ccc(N2CCC(C3CCN(C(=O)[C@](O)(c4ccccc4)C(F)(F)F)CC3)CC2)cc1Cl` (stereo partly drawn) [Example E-51, 2-chloro-N-(1-isoxazol-3-ylethyl)-N-methyl-4-{1′-[(2R)-3,3,3-trifluoro-2-hydroxy-2-phenylpropanoyl]-4,4′-bipiperidin-1-yl}benzamide], for which the results for the EC50 in experiment [1] (setting [3]) and in experiment [2] were 1720 nM and 145 nM, respectively. The Emax in experiment [1] came out at 18%; in experiment [2] it was 62%.
In the case of `CN(Cc1ccon1)C(=O)c1ccc(N2CCC(C3CCN(C(=O)[C@](O)(c4ccccc4)C(F)(F)F)CC3)CC2)cc1Cl` [Example E-52, 2-chloro-N-(isoxazol-3-ylmethyl)-N-methyl-4-{1′-[(2R)-3,3,3-trifluoro-2-hydroxy-2-phenylpropanoyl]-4,4′-bipiperidin-1-yl}benzamide], the EC50 was 1420 nM in experiment [1] (setting [3]) and 206 nM in experiment [2]. In addition, the Emax was 28% in experiment [1] and 78% in experiment [2].
For `CN(C(=O)c1ccc(N2CCC(C3CCN(C(=O)[C@](O)(c4ccccc4)C(F)(F)F)CC3)CC2)cc1Cl)C1CCOC1` (stereo partly drawn) [Example E-53, 2-chloro-N-methyl-N-(tetrahydrofuran-3-yl)-4-{1′-[(2R)-3,3,3-trifluoro-2-hydroxy-2-phenylpropanoyl]-4,4′-bipiperidin-1-yl}benzamide], in that order: 1600 nM, 219 nM, 34% and 98%.
In the case of `CN(Cc1noc(C2CC2)n1)C(=O)c1ccc(N2CCC(C3CCN(C(=O)[C@](O)(c4ccccc4)C(F)(F)F)CC3)CC2)cc1Cl` [Example E-54, 2-chloro-N-[(5-cyclopropyl-1,2,4-oxadiazol-3-yl)methyl]-N-methyl-4-{1′-[(2R)-3,3,3-trifluoro-2-hydroxy-2-phenylpropanoyl]-4,4′-bipiperidin-1-yl}benzamide], the EC50 in experiment [1] (setting [3]) was 1460 nM; in experiment [2], 35 nM. Moreover, the Emax was found to be 55% in experiment [1] and 93% in experiment [2].
For `Cc1nc(CCN(C)C(=O)c2ccc(N3CCC(C4CCN(C(=O)[C@](O)(c5ccccc5)C(F)(F)F)CC4)CC3)cc2Cl)no1` [Example E-55, 2-chloro-N-methyl-N-[2-(5-methyl-1,2,4-oxadiazol-3-yl)ethyl]-4-{1′-[(2R)-3,3,3-trifluoro-2-hydroxy-2-phenylpropanoyl]-4,4′-bipiperidin-1-yl}benzamide], the EC50 in experiment [1] (setting [3]) amounted to 1110 nM; in experiment [2] it was 66 nM. Besides, the Emax in experiment [1] worked out at 41%; in experiment [2], 106%.
The like results for `CC(C)(C)OC(=O)NC1CN(C(=O)c2ccc(N3CCC(C4CCN(C(=O)[C@](O)(c5ccccc5)C(F)(F)F)CC4)CC3)cc2Cl)C1` [Example E-56, tert-butyl {1-[(2-chloro-4-{1′-[(2R)-3,3,3-trifluoro-2-hydroxy-2-phenylpropanoyl]-4,4′-bipiperidin-1-yl}phenyl)carbonyl]azetidin-3-yl}carbamate] were, in that order, 488 nM, 21 nM, 45% and 89%.
For the compound `O=C(c1ccc(N2CCC(C3CCN(C(=O)[C@](O)(c4ccccc4)C(F)(F)F)CC3)CC2)cc1Cl)N1CCCC1C1CC1` (stereo partly drawn) [Example E-57, (2R)-3-(1′-{3-chloro-4-[(2-cyclopropylpyrrolidin-1-yl)carbonyl]phenyl}-4,4′-bipiperidin-1-yl)-1,1,1-trifluoro-3-oxo-2-phenylpropan-2-ol], the EC50 in experiment [1] (setting [3]) is 975 nM; in experiment [2] it was 134 nM. Besides, the Emax was 16% in experiment [1] and 65% in experiment [2].
